Experimental data taken from patent US4363793A, “Diagnostic radiopharmaceuticals for localization in target tissues exhibiting a regional pH shift relative to surrounding tissues” (State University of New York, priority 1980, dated 1982).

How the values were obtained:
[1] = cited from earlier work
[2] = Organ distribution of Se-75 labeled compound in rats after intravenous injection; format: in vivo, Spraque-Dawley male rats; conditions: rat; for penetration of the blood brain barrier (in words) / % dose/organ, heart / % dose/organ, kidney / % dose/organ, liver / % dose/organ, lung(2) / % dose/organ, pancreas / % dose/organ, spleen / % dose/organ, brain (brain uptake) / % dose/organ, blood / % dose/organ, muscle: i.v.; for % dose/organ, blood: blood assumed 7% of body weight; for % dose/organ, muscle: muscle assumed 40% of body weight
Excerpt: FIGS. 2 and 3 respectively show the relative concentration of Se-75 labeled di-β-(piperidinoethyl)-selenide and di-β-(morpholinoethyl)-selenide in rat brains at several time intervals after an intravenous injection of a dose of the respective compounds into the rat. As is shown in FIG. 3, and also in Table 4, two minutes after an intravenous injection of Se-75 labeled di-β-(morpholinoethyl)-selenide, the brain uptake of the radiopharmaceutical compound reaches a value of 3.19%. […] The terms uptake, % uptake or % dose are used to describe the percentage of the radiopharmaceutical compound contained in a given organ or tissue as compared to the total initial dose. The numerical values in FIGS. 2 and 3 and Tables 3 and 4 represent such percentages.
Studies of distribution of the radiopharmaceutical compounds of the present invention in rats, the results of which are reflected in FIGS. 2 and 3 and Tables 3 and 4, were conducted according to standard practice in the pharmacological sciences, and therefore need not be described here in great detail. Nevertheless, for the sake of complete understanding of the present invention, some experimental details of these studies are briefly described below:
Spraque-Dawley male rats (220-300 g) were injected intravenously (femoral vein) with a 0.2 ml solution (0.5-2 micro Ci) under light ether anaesthesia. At different time periods after the injection, the animals were sacrificed and organs of interest were excised and counted in a well counter. Percent dose was estimated by comparison of tissue counts to suitably diluted aliquots of the injected material. Total activities in blood and muscle were calculated by assuming that they are 7% and 40% of the body weight respectively.

[3] = n-octanol-aqueous medium partition coefficient pH correlation; format: physicochemical; conditions: for partition coefficient / lipid solubility at the pH of the blood (in words): pH 7.4, morpholinoethyl vs piperidinoethyl selenide
Excerpt: The n-octanol-aqueous medium partition coefficients of the compound are readily measured in accordance with standard practice in the prior art. Briefly, such measurements include the steps of dissolving a known amount of the compound in an aqueous buffer of a predetermined pH and extracting the buffer solution with a known amount of n-octanol until an equilibrium of distribution of the compound between the aqueous and n-octanol phases occurs. The concentration of the compound in both phases is then measured by suitable analytical means, such as ultraviolet spectrophotometry; the partition coefficient being the ratio of the two measured concentrations.
For the purposes of evaluating a plurality of radioactive compounds for use in the novel method of the present invention, the n-octanol-aqueous medium partition coefficients of the compounds were measured in the following manner. The radioactive compound was mixed with 1.0 ml of n-octanol and 1.0 ml of buffer of the desired predetermined pH. The radioactivity of this mixture was counted, and the mixture was placed in a water bath shaker at 37° C. for 2 hours. After centrifugation at 3,000 rpm for 5 minutes, the n-octanol layer was separated and its radioactivity counted. The partition coefficient of the compound was calculated by the following equation: [formula]

[4] = Brain imaging study on rhesus monkey (Cleon 710 ECAT scanner); format: in vivo, rhesus monkeys; conditions: 5.3 kg monkey, 1 mCi injected, images 15 minutes to 2 hours
Protocol: In addition to the above described organ and tissue distribution studies in rats of the several compounds of the present invention, brain imaging studies were also conducted on rhesus monkeys using a Cleon 710 ECAT scanner.
A 5.3 kg monkey, lightly sedated with Ketalar, was injected with 1 mCi of di-β-(morpholinoethyl)-selenide, (specific activity 1 mCi/mg). Five minutes later the monkey was anaesthetized with pentabarbital. A series of tomographic images was taken at roughly 1/2" intervals starting at the vertex. The first image was started 15 minutes after injection and various images were recorded up to 2 hours after injection. Each image contained approximately one million counts. At the conclusion of the imaging experiment, the monkey was killed and the brain was assayed in the dose calibrator used for measuring the injected dose. No correction was applied for the change in geometry between the syringe and the monkey brain. The weight of the brain was 84 g.

[5] = 2 min (morpholinoethyl: average of 5 samples)

Cc1c(I)c(=O)n(-c2ccccc2)n1C [iodoantipyrine]
penetration of brain tissue (in words) ([1]; in vivo): able to penetrate brain tissue
retention in brain (in words) ([1]; within one hour after penetration): almost completely leaves the brain by diffusion

C1CCN(CC[Se]CCN2CCCCC2)CC1 [di-β-(piperidinoethyl)-selenide]
penetration of the blood brain barrier (in words) [2]: capable of penetrating the blood brain barrier
% dose/organ, heart ([2]; 2 min): 3.04%
% dose/organ, kidney ([2]; 2 min): 7.14%
% dose/organ, liver ([2]; 2 min): 12.0%
% dose/organ, lung(2) ([2]; 2 min): 20.0%
% dose/organ, pancreas ([2]; 2 min): 0.62%
% dose/organ, spleen ([2]; 2 min): 0.51%
% dose/organ, brain (brain uptake) [2, 5]: 1.09%
% dose/organ, blood ([2]; 2 min): 4.58%
% dose/organ, muscle ([2]; 2 min): 7.39%
% dose/organ, brain (brain uptake) ([2]; 30 min): 1.49%
% dose/organ, heart ([2]; 30 min): 0.89%
% dose/organ, kidney ([2]; 30 min): 9.21%
% dose/organ, liver ([2]; 30 min): 14.3%
% dose/organ, lung(2) ([2]; 30 min): 2.83%
% dose/organ, pancreas ([2]; 30 min): 1.42%
% dose/organ, spleen ([2]; 30 min): 1.31%
% dose/organ, blood ([2]; 30 min): 0.87%
% dose/organ, muscle ([2]; 30 min): 13.4%
% dose/organ, brain (brain uptake) ([2]; 1 hr): 1.53%
% dose/organ, heart ([2]; 1 hr): 0.35%
% dose/organ, kidney ([2]; 1 hr): 4.43%
% dose/organ, liver ([2]; 1 hr): 16.6%
% dose/organ, lung(2) ([2]; 1 hr): 1.92%
% dose/organ, pancreas ([2]; 1 hr): 1.07%
% dose/organ, spleen ([2]; 1 hr): 0.90%
% dose/organ, blood ([2]; 1 hr): 0.75%
% dose/organ, muscle ([2]; 1 hr): 16.1%
% dose/organ, brain (brain uptake) ([2]; 2 hr): 1.63%
% dose/organ, heart ([2]; 2 hr): 0.19%
% dose/organ, kidney ([2]; 2 hr): 2.89%
% dose/organ, liver ([2]; 2 hr): 15.9%
% dose/organ, lung(2) ([2]; 2 hr): 0.85%
% dose/organ, pancreas ([2]; 2 hr): 0.84%
% dose/organ, spleen ([2]; 2 hr): 1.03%
% dose/organ, blood ([2]; 2 hr): 0.65%
% dose/organ, muscle ([2]; 2 hr): 12.0%
% dose/organ, brain (brain uptake) ([2]; 4 hr): 1.32%
% dose/organ, heart ([2]; 4 hr): 0.16%
% dose/organ, kidney ([2]; 4 hr): 1.53%
% dose/organ, liver ([2]; 4 hr): 16.0%
% dose/organ, lung(2) ([2]; 4 hr): 0.82%
% dose/organ, pancreas ([2]; 4 hr): 0.60%
% dose/organ, spleen ([2]; 4 hr): 0.61%
% dose/organ, blood ([2]; 4 hr): 0.59%
% dose/organ, muscle ([2]; 4 hr): 11.9%
% dose/organ, brain (brain uptake) ([2]; 6 hr): 1.18%
% dose/organ, kidney ([2]; 6 hr): 0.64%
% dose/organ, liver ([2]; 6 hr): 7.66%
% dose/organ, spleen ([2]; 6 hr): 0.34%
% dose/organ, blood ([2]; 6 hr): 0.51%
% dose/organ, muscle ([2]; 6 hr): 11.5%
% dose/organ, brain (brain uptake) ([2]; 24 hr): 0.91%
% dose/organ, heart ([2]; 24 hr): 0.03%
% dose/organ, kidney ([2]; 24 hr): 0.38%
% dose/organ, liver ([2]; 24 hr): 4.79%
% dose/organ, lung(2) ([2]; 24 hr): 0.31%
% dose/organ, pancreas ([2]; 24 hr): 0.11%
% dose/organ, spleen ([2]; 24 hr): 0.10%
% dose/organ, blood ([2]; 24 hr): 0.20%
% dose/organ, muscle ([2]; 24 hr): 2.81%
% dose/organ, brain (brain uptake) ([2]; 3 day): 0.16%
% dose/organ, kidney ([2]; 3 day): 0.12%
% dose/organ, liver ([2]; 3 day): 1.72%
% dose/organ, spleen ([2]; 3 day): 0.01%
% dose/organ, blood ([2]; 3 day): 0.08%
% dose/organ, muscle ([2]; 3 day): 0.40%
partition coefficient pH dependence (in words) ([3]; n-octanol-aqueous medium, pH 6.6 to 7.6): much higher partition coefficient pH dependence
partition coefficient / lipid solubility at the pH of the blood (in words) [3]: less lipid soluble at the pH of the blood

C1CN(CC[75Se]CCN2CCOCC2)CCO1 [di-β-(morpholinoethyl)-selenide]
distribution in monkey brain (in words) [4]: resembles the distribution observed for F-18 2-fluoro-2-deoxyglucose or for N-13 labeled ammonia, with a higher uptake of the radiopharmaceutical compound in gray matter of the brain than in white matter
decrease of brain content (% dose) (in words) ([2]; after intravenous injection): decreases much more rapidly after the intravenous injection than that of di-β-(piperidinoethyl)-selenide
penetration of the blood brain barrier (in words) [2]: capable of penetrating the blood brain barrier
% dose/organ, heart ([2]; 2 min): 0.45%
% dose/organ, kidney ([2]; 2 min): 9.89%
% dose/organ, liver ([2]; 2 min): 18.3%
% dose/organ, lung(2) ([2]; 2 min): 2.77%
% dose/organ, pancreas ([2]; 2 min): 0.88%
% dose/organ, spleen ([2]; 2 min): 0.68%
% dose/organ, brain (brain uptake) [2, 5]: 3.19%
% dose/organ, blood ([2]; 2 min): 3.13%
% dose/organ, muscle ([2]; 2 min): 10.5%
% dose/organ, brain (brain uptake) ([2]; 5 min): 2.80%
% dose/organ, kidney ([2]; 5 min): 7.46%
% dose/organ, liver ([2]; 5 min): 19.7%
% dose/organ, spleen ([2]; 5 min): 0.87%
% dose/organ, blood ([2]; 5 min): 2.72%
% dose/organ, muscle ([2]; 5 min): 15.0%
% dose/organ, brain (brain uptake) ([2]; 15 min (average of 6 rats)): 2.23%
% dose/organ, kidney ([2]; 15 min (average of 6 rats)): 4.04%
% dose/organ, liver ([2]; 15 min (average of 6 rats)): 22.1%
% dose/organ, spleen ([2]; 15 min (average of 6 rats)): 1.23%
% dose/organ, blood ([2]; 15 min (average of 6 rats)): 2.26%
% dose/organ, muscle ([2]; 15 min (average of 6 rats)): 19.4%
% dose/organ, brain (brain uptake) ([2]; 30 min): 1.53%
% dose/organ, heart ([2]; 30 min): 0.22%
% dose/organ, kidney ([2]; 30 min): 4.03%
% dose/organ, liver ([2]; 30 min): 23.3%
% dose/organ, lung(2) ([2]; 30 min): 1.79%
% dose/organ, pancreas ([2]; 30 min): 0.38%
% dose/organ, spleen ([2]; 30 min): 1.55%
% dose/organ, blood ([2]; 30 min): 2.82%
% dose/organ, muscle ([2]; 30 min): 14.4%
% dose/organ, brain (brain uptake) ([2]; 1 hr): 1.19%
% dose/organ, kidney ([2]; 1 hr): 4.30%
% dose/organ, liver ([2]; 1 hr): 29.9%
% dose/organ, blood ([2]; 1 hr): 2.61%
% dose/organ, muscle ([2]; 1 hr): 13.6%
% dose/organ, brain (brain uptake) ([2]; 2 hr): 0.56%
% dose/organ, heart ([2]; 2 hr): 0.18%
% dose/organ, kidney ([2]; 2 hr): 3.42%
% dose/organ, liver ([2]; 2 hr): 21.7%
% dose/organ, lung(2) ([2]; 2 hr): 0.94%
% dose/organ, pancreas ([2]; 2 hr): 0.25%
% dose/organ, spleen ([2]; 2 hr): 0.88%
% dose/organ, blood ([2]; 2 hr): 2.46%
% dose/organ, muscle ([2]; 2 hr): 17.7%
% dose/organ, brain (brain uptake) ([2]; 6 hr): 0.10%
% dose/organ, kidney ([2]; 6 hr): 0.64%
% dose/organ, liver ([2]; 6 hr): 4.38%
% dose/organ, spleen ([2]; 6 hr): 0.19%
% dose/organ, blood ([2]; 6 hr): 0.61%
% dose/organ, muscle ([2]; 6 hr): 3.43%
% dose/organ, brain (brain uptake) ([2]; 24 hr): 0.02%
% dose/organ, heart ([2]; 24 hr): 0.02%
% dose/organ, kidney ([2]; 24 hr): 0.29%
% dose/organ, liver ([2]; 24 hr): 2.15%
% dose/organ, lung(2) ([2]; 24 hr): 0.04%
% dose/organ, pancreas ([2]; 24 hr): 0.01%
% dose/organ, spleen ([2]; 24 hr): 0.10%
% dose/organ, blood ([2]; 24 hr): 0.13%
% dose/organ, muscle ([2]; 24 hr): 0.74%
partition coefficient / lipid solubility at the pH of the blood (in words) [3]: higher partition coefficient at the pH of the blood (7.4) than di-β-(piperidinoethyl)-selenide
